System: MV-4-11 cells
Experiment: Gene expression microarray analysis (Affymetrix PrimeView) and GSEA
Format: cell-based, human
Parameters: RFU PODN (11730768_x_at) / Fold change /veh PODN (11730768_x_at) / RFU LINC00158 (11744669_a_at) / Fold change /veh LINC00158 (11744669_a_at) / RFU DUSP10 (11751237_a_at) / Fold change /veh DUSP10 (11751237_a_at) / RFU ID3 (11757404_x_at) / Fold change /veh ID3 (11757404_x_at) / RFU PLEKHG5 (11737974_s_at) / Fold change /veh PLEKHG5 (11737974_s_at) / RFU LRRC4B (11730491_at) / Fold change /veh LRRC4B (11730491_at) / RFU GIMAP4 (11747438_a_at) / Fold change /veh GIMAP4 (11747438_a_at) / RFU KRT8 (11758183_x_at) / Fold change /veh KRT8 (11758183_x_at) / RFU CNN1 (11734310_a_at) / Fold change /veh CNN1 (11734310_a_at) / RFU VPS37D (11726825_at) / Fold change /veh VPS37D (11726825_at) / RFU C10orf10 (11716522_x_at) / Fold change /veh C10orf10 (11716522_x_at) / RFU KIR2DL2 /// KIR2DL4 /// KIR2DL5A /// KIR2DL5B /// KIR2DS1 /// KIR2DS2 /// KIR2DS3 /// KIR2DS4 /// KIR3DL3 /// KIR3DL3 /// KIR3DS1 (11738374_at) / Fold change /veh KIR2DL2 /// KIR2DL4 /// KIR2DL5A /// KIR2DL5B /// KIR2DS1 /// KIR2DS2 /// KIR2DS3 /// KIR2DS4 /// KIR3DL3 /// KIR3DL3 /// KIR3DS1 (11738374_at) / RFU C1QL1 (11718748_at) / Fold change /veh C1QL1 (11718748_at) / RFU TMPRSS4 (11747572_a_at) / Fold change /veh TMPRSS4 (11747572_a_at) / RFU HAMP (11756126_x_at) / Fold change /veh HAMP (11756126_x_at) / RFU RNFT2 (11725882_a_at) / Fold change /veh RNFT2 (11725882_a_at) / RFU NR4A2 (11747474_a_at) / Fold change /veh NR4A2 (11747474_a_at) / RFU ABCC12 (11746883_a_at) / Fold change /veh ABCC12 (11746883_a_at) / RFU TMEM136 (11760407_x_at) / Fold change /veh TMEM136 (11760407_x_at) / RFU CLDN22 /// WWC2 (11732394_at) / Fold change /veh CLDN22 /// WWC2 (11732394_at) / RFU HLA-DPB1 (11760878_x_at) / Fold change /veh HLA-DPB1 (11760878_x_at) / RFU SPINT1 (11716480_a_at) / Fold change /veh SPINT1 (11716480_a_at) / RFU GAP43 (11754022_s_at) / Fold change /veh GAP43 (11754022_s_at) / RFU A4GNT (11735810_at) / Fold change /veh A4GNT (11735810_at) / RFU PRB3 (11715151_x_at) / Fold change /veh PRB3 (11715151_x_at) / RFU TUBB4B (11761932_at) / Fold change /veh TUBB4B (11761932_at) / RFU CAPN14 (11732068_a_at) / Fold change /veh CAPN14 (11732068_a_at) / RFU TMCC2 (11721928_a_at) / Fold change /veh TMCC2 (11721928_a_at) / RFU IRGQ (11745062_a_at) / Fold change /veh IRGQ (11745062_a_at) / RFU FAM174B (11720279_a_at) / Fold change /veh FAM174B (11720279_a_at) / RFU TMPRSS4 (11748680_a_at) / Fold change /veh TMPRSS4 (11748680_a_at) / RFU FAM212B (11763350_a_at) / Fold change /veh FAM212B (11763350_a_at) / RFU PLEKHG5 (11743358_a_at) / Fold change /veh PLEKHG5 (11743358_a_at) / RFU ZSCAN30 (11745921_a_at) / Fold change /veh ZSCAN30 (11745921_a_at) / RFU CMKLR1 (11741424_a_at) / Fold change /veh CMKLR1 (11741424_a_at) / RFU LOC101060620 /// MAPK8IP1 (11723275_at) / Fold change /veh LOC101060620 /// MAPK8IP1 (11723275_at) / RFU SPTSSB (11747773_x_at) / Fold change /veh SPTSSB (11747773_x_at) / RFU PRSS12 (11739890_at) / Fold change /veh PRSS12 (11739890_at) / RFU BIN1 (11741810_x_at) / Fold change /veh BIN1 (11741810_x_at) / RFU WNT11 (11732464_a_at) / Fold change /veh WNT11 (11732464_a_at) / RFU C10orf10 (11716521_a_at) / Fold change /veh C10orf10 (11716521_a_at) / RFU C5orf56 (11738089_at) / Fold change /veh C5orf56 (11738089_at) / RFU CYB561 (11721691_x_at) / Fold change /veh CYB561 (11721691_x_at) / RFU ANKRD19P (11752326_a_at) / Fold change /veh ANKRD19P (11752326_a_at) / RFU OR2T12 /// OR2T33 /// OR2T8 (11738714_s_at) / Fold change /veh OR2T12 /// OR2T33 /// OR2T8 (11738714_s_at) / RFU VCAN (11748164_a_at) / Fold change /veh VCAN (11748164_a_at) / RFU JSRP1 (11732532_at) / Fold change /veh JSRP1 (11732532_at) / RFU KRTAP10-11 (11738290_x_at) / Fold change /veh KRTAP10-11 (11738290_x_at) / RFU MYO3A (11730013_a_at) / Fold change /veh MYO3A (11730013_a_at) / RFU EBF3 (11725865_a_at) / Fold change /veh EBF3 (11725865_a_at) / RFU CAMK2N1 (11719241_x_at) / Fold change /veh CAMK2N1 (11719241_x_at) / RFU C5orf56 (11738088_a_at) / Fold change /veh C5orf56 (11738088_a_at) / RFU OLFML3 (11715873_a_at) / Fold change /veh OLFML3 (11715873_a_at) / RFU LOC100653217 /// NTM (11731650_a_at) / Fold change /veh LOC100653217 /// NTM (11731650_a_at) / RFU MAPK11 (11762145_a_at) / Fold change /veh MAPK11 (11762145_a_at) / RFU FIZ1 (11724087_x_at) / Fold change /veh FIZ1 (11724087_x_at) / RFU OASL (11726364_x_at) / Fold change /veh OASL (11726364_x_at) / RFU SOX15 (11748057_x_at) / Fold change /veh SOX15 (11748057_x_at) / RFU CD79A (11719716_a_at) / Fold change /veh CD79A (11719716_a_at) / RFU HIST1H1D (11736915_at) / Fold change /veh HIST1H1D (11736915_at) / RFU CASKIN2 (11723855_a_at) / Fold change /veh CASKIN2 (11723855_a_at) / RFU LOC730098 (11760151_x_at) / Fold change /veh LOC730098 (11760151_x_at) / RFU OR4N2 (11742367_at) / Fold change /veh OR4N2 (11742367_at) / RFU PRRT2 (11749266_a_at) / Fold change /veh PRRT2 (11749266_a_at) / RFU SNX32 (11753110_a_at) / Fold change /veh SNX32 (11753110_a_at) / RFU CDHR5 (11726645_a_at) / Fold change /veh CDHR5 (11726645_a_at) / RFU RCAN1 (11760418_a_at) / Fold change /veh RCAN1 (11760418_a_at) / RFU FAM167A (11723789_a_at) / Fold change /veh FAM167A (11723789_a_at) / RFU FAM26E (11764081_at) / Fold change /veh FAM26E (11764081_at) / RFU ISYNA1 (11749810_s_at) / Fold change /veh ISYNA1 (11749810_s_at) / RFU ACY1 (11761880_at) / Fold change /veh ACY1 (11761880_at) / RFU 11764098_at / Fold change /veh 11764098_at / RFU SAMD14 (11745864_x_at) / Fold change /veh SAMD14 (11745864_x_at) / RFU NPB (11741838_a_at) / Fold change /veh NPB (11741838_a_at) / RFU TMPRSS6 (11731388_a_at) / Fold change /veh TMPRSS6 (11731388_a_at) / RFU KRTAP10-2 (11738614_at) / Fold change /veh KRTAP10-2 (11738614_at) / RFU ARHGAP8 /// PRR5-ARHGAP8 (11727945_x_at) / Fold change /veh ARHGAP8 /// PRR5-ARHGAP8 (11727945_x_at) / RFU KRTAP5-7 /// NADSYN1 (11734609_at) / Fold change /veh KRTAP5-7 /// NADSYN1 (11734609_at) / RFU RASL12 (11751679_a_at) / Fold change /veh RASL12 (11751679_a_at) / RFU CDKN2B (11736163_a_at) / Fold change /veh CDKN2B (11736163_a_at) / RFU PRF1 (11729649_at) / Fold change /veh PRF1 (11729649_at) / RFU, ZNF638 /// ZNF638-IT1 / Fold change vs veh, ZNF638 /// ZNF638-IT1 / RFU, PANK3 / Fold change vs veh, PANK3 / RFU, SH3YL1 / Fold change vs veh, SH3YL1 / RFU, ZEB2 / Fold change vs veh, ZEB2 / RFU, NRIP1 / Fold change vs veh, NRIP1 / RFU, PTTG1IP / Fold change vs veh, PTTG1IP / RFU, CAPN2 / Fold change vs veh, CAPN2 / RFU, MED14 / Fold change vs veh, MED14 / RFU, SNORA58 / Fold change vs veh, SNORA58 / RFU, C1orf63 / Fold change vs veh, C1orf63 / RFU, LRRFIP1 / Fold change vs veh, LRRFIP1 / RFU, NDUFAF7 / Fold change vs veh, NDUFAF7 / RFU, SLC12A2 / Fold change vs veh, SLC12A2 / RFU, IBTK / Fold change vs veh, IBTK / RFU, ESF1 / Fold change vs veh, ESF1 / Fold change vs veh, TMEM50B / RFU, TAOK1 / Fold change vs veh, TAOK1 / RFU, ACBD3 / Fold change vs veh, ACBD3 / RFU, TMA16 / Fold change vs veh, TMA16 / RFU, RWDD3 / Fold change vs veh, RWDD3 / RFU, BCAT1 / Fold change vs veh, BCAT1 / RFU, EDEM3 / Fold change vs veh, EDEM3 / RFU, TMEM33 / Fold change vs veh, TMEM33 / RFU, WDR75 / Fold change vs veh, WDR75 / RFU, AHCTF1 / Fold change vs veh, AHCTF1 / RFU, TFRC / Fold change vs veh, TFRC / RFU, ZDHHC17 / Fold change vs veh, ZDHHC17 / RFU, NOM1 / Fold change vs veh, NOM1 / RFU, ARL8B / Fold change vs veh, ARL8B / RFU, ZBTB11 / Fold change vs veh, ZBTB11 / RFU, TAMM41 / Fold change vs veh, TAMM41 / RFU, KIAA1704 /// LOC100996395 / Fold change vs veh, KIAA1704 /// LOC100996395 / RFU, ING1 / Fold change vs veh, ING1 / RFU, TRMT61B / Fold change vs veh, TRMT61B / RFU, FUBP3 / Fold change vs veh, FUBP3 / RFU, TP53 / Fold change vs veh, TP53 / RFU, TNKS2 / Fold change vs veh, TNKS2 / RFU, ZFP14 / Fold change vs veh, ZFP14 / RFU, ACTR2 / Fold change vs veh, ACTR2 / RFU, PPP3R1 / Fold change vs veh, PPP3R1 / RFU, PIK3R1 / Fold change vs veh, PIK3R1 / RFU, HNRNPA1 / Fold change vs veh, HNRNPA1 / RFU, RNF170 / Fold change vs veh, RNF170 / RFU, ZNF28 / Fold change vs veh, ZNF28 / RFU, RNGTT / Fold change vs veh, RNGTT / RFU, OGT / Fold change vs veh, OGT / RFU, BRD1 / Fold change vs veh, BRD1 / RFU, MARS / Fold change vs veh, MARS / RFU, ZNF655 / Fold change vs veh, ZNF655 / RFU, FAHD1 / Fold change vs veh, FAHD1 / RFU, BDP1 / Fold change vs veh, BDP1 / RFU, LRRCC1 / Fold change vs veh, LRRCC1 / RFU, ARID1A / Fold change vs veh, ARID1A / RFU, ZNF146 / Fold change vs veh, ZNF146 / RFU, ZNF330 / Fold change vs veh, ZNF330 / RFU, GPN3 / Fold change vs veh, GPN3 / RFU, C9orf123 / Fold change vs veh, C9orf123 / RFU, N4BP2L2 / Fold change vs veh, N4BP2L2 / RFU, ARFIP1 / Fold change vs veh, ARFIP1 / RFU, FAM179B / Fold change vs veh, FAM179B / RFU, BCL10 / Fold change vs veh, BCL10 / RFU, UHRF1BP1L / Fold change vs veh, UHRF1BP1L / RFU, BET1 / Fold change vs veh, BET1 / RFU, CNOT2 / Fold change vs veh, CNOT2 / RFU, ZNF268 / Fold change vs veh, ZNF268 / Fold change vs veh, ZNF507 / RFU, DGCR2 / Fold change vs veh, DGCR2 / RFU, WDSUB1 / Fold change vs veh, WDSUB1 / Fold change vs veh, HSP90B1 /// MIR3652 / RFU, ADSS / Fold change vs veh, ADSS / RFU, GK / Fold change vs veh, GK / RFU, ZNF148 / Fold change vs veh, ZNF148 / RFU, TAF9 / Fold change vs veh, TAF9 / RFU, SLC1A5 / Fold change vs veh, SLC1A5 / RFU, SLMO2 / Fold change vs veh, SLMO2 / RFU, ABCC4 / Fold change vs veh, ABCC4 / RFU, LOC101060439 /// RAP1B / Fold change vs veh, LOC101060439 /// RAP1B / RFU, RFX7 / Fold change vs veh, RFX7 / RFU, GTPBP10 / Fold change vs veh, GTPBP10 / RFU, CNEP1R1 / Fold change vs veh, CNEP1R1 / RFU, BIVM-ERCC5 /// ERCC5 / Fold change vs veh, BIVM-ERCC5 /// ERCC5 / RFU, ILF3 / Fold change vs veh, ILF3 / RFU 11762660_at / Fold change /veh 11762660_at / RFU VCAN (11757783_s_at) / Fold change /veh VCAN (11757783_s_at) / RFU DDX43 (11728927_at) / Fold change /veh DDX43 (11728927_at) / RFU KRT8 (11758188_x_at) / Fold change /veh KRT8 (11758188_x_at) / RFU NKD1 (11759106_at) / Fold change /veh NKD1 (11759106_at) / RFU SRD5A1 (11742802_a_at) / Fold change /veh SRD5A1 (11742802_a_at) / RFU TPSAB1 /// TPSB2 (11721975_s_at) / Fold change /veh TPSAB1 /// TPSB2 (11721975_s_at) / RFU GSTM3 (11746129_a_at) / Fold change /veh GSTM3 (11746129_a_at) / RFU IL23R (11737362_x_at) / Fold change /veh IL23R (11737362_x_at) / RFU TMEM51 (11727254_a_at) / Fold change /veh TMEM51 (11727254_a_at) / RFU PIWIL2 (11732686_x_at) / Fold change /veh PIWIL2 (11732686_x_at) / RFU ORM1 (11744905_x_at) / Fold change /veh ORM1 (11744905_x_at) / RFU CCDC152 (11743942_at) / Fold change /veh CCDC152 (11743942_at) / RFU ECM1 (11717891_a_at) / Fold change /veh ECM1 (11717891_a_at) / RFU IL23R (11748794_a_at) / Fold change /veh IL23R (11748794_a_at) / RFU TNFAIP8L3 (11732012_x_at) / Fold change /veh TNFAIP8L3 (11732012_x_at) / RFU MBOAT4 (11741988_at) / Fold change /veh MBOAT4 (11741988_at) / RFU 11764193_at / Fold change /veh 11764193_at / RFU TMEM53 (11763286_at) / Fold change /veh TMEM53 (11763286_at) / RFU MAGEB2 (11727129_at) / Fold change /veh MAGEB2 (11727129_at) / RFU TMEM200A (11744735_a_at) / Fold change /veh TMEM200A (11744735_a_at) / RFU CCDC152 (11751479_a_at) / Fold change /veh CCDC152 (11751479_a_at) / RFU FAM211A (11726209_a_at) / Fold change /veh FAM211A (11726209_a_at) / RFU RGS16 (11746705_a_at) / Fold change /veh RGS16 (11746705_a_at) / RFU VCAN (11755009_s_at) / Fold change /veh VCAN (11755009_s_at) / RFU RHOB (11743442_s_at) / Fold change /veh RHOB (11743442_s_at) / RFU RGS16 (11720943_a_at) / Fold change /veh RGS16 (11720943_a_at) / RFU RGS16 (11720944_at) / Fold change /veh RGS16 (11720944_at) / RFU, VPS4B / Fold change vs veh, VPS4B / RFU, CREB1 / Fold change vs veh, CREB1 / RFU, DNAJC13 / Fold change vs veh, DNAJC13 / RFU, GNAQ / Fold change vs veh, GNAQ / RFU, CDK5R1 / Fold change vs veh, CDK5R1 / RFU, ZRANB3 / Fold change vs veh, ZRANB3 / RFU, CUL4A / Fold change vs veh, CUL4A / RFU, CCNY / Fold change vs veh, CCNY / RFU, UFL1 / Fold change vs veh, UFL1 / RFU, COG3 / Fold change vs veh, COG3 / RFU, DIAPH2 / Fold change vs veh, DIAPH2 / RFU, SKA2 / Fold change vs veh, SKA2 / RFU, AFF3 / Fold change vs veh, AFF3 / RFU, LMF1 / Fold change vs veh, LMF1 / RFU, IPO11 / Fold change vs veh, IPO11 / RFU, DFFB / Fold change vs veh, DFFB / RFU, FOXP1 / Fold change vs veh, FOXP1 / RFU, CARD8 / Fold change vs veh, CARD8 / RFU, STRN3 / Fold change vs veh, STRN3 / RFU, ADK / Fold change vs veh, ADK / RFU, RASSF2 / Fold change vs veh, RASSF2 / RFU, WIPF1 / Fold change vs veh, WIPF1 / RFU, LARP1B / Fold change vs veh, LARP1B / RFU, RASA1 / Fold change vs veh, RASA1 / RFU, RB1 / Fold change vs veh, RB1 / RFU, PPFIA1 / Fold change vs veh, PPFIA1 / RFU, MAT2A / Fold change vs veh, MAT2A / RFU, CCT5 / Fold change vs veh, CCT5 / RFU, WDR92 / Fold change vs veh, WDR92 / RFU, CUX1 / Fold change vs veh, CUX1 / RFU, TTC7A / Fold change vs veh, TTC7A / RFU, TMEM135 / Fold change vs veh, TMEM135 / RFU, DEPTOR / Fold change vs veh, DEPTOR / RFU, CPM / Fold change vs veh, CPM / RFU, DNAJB6 / Fold change vs veh, DNAJB6 / RFU, CACNA2D3 / Fold change vs veh, CACNA2D3 / RFU, DTX4 / Fold change vs veh, DTX4 / RFU, TFCP2 / Fold change vs veh, TFCP2 / RFU, GMCL1 /// GMCL1P1 / Fold change vs veh, GMCL1 /// GMCL1P1 / RFU, AEBP2 / Fold change vs veh, AEBP2 / RFU, SNHG1 /// SNORD22 /// SNORD25 /// SNORD26 /// SNORD27 /// SNORD28 /// SNORD29 /// SNORD31 / Fold change vs veh, SNHG1 /// SNORD22 /// SNORD25 /// SNORD26 /// SNORD27 /// SNORD28 /// SNORD29 /// SNORD31 / Fold change (Aza/veh), C12orf56 (ProbeSet 11735607_a_at) / Fold change (ACY-1035/veh), C12orf56 (ProbeSet 11735607_a_at) / Fold change (Aza/veh), FGFR1OP (ProbeSet 11751329_s_at) / Fold change (ACY-1035/veh), FGFR1OP (ProbeSet 11751329_s_at) / Fold change (Aza/veh), VPS36 (ProbeSet 11739960_a_at) / Fold change (ACY-1035/veh), VPS36 (ProbeSet 11739960_a_at) / RFU SYPL1 (11715823_x_at) / Fold change /veh SYPL1 (11715823_x_at) / RFU IGFBP7 (11715501_s_at) / Fold change /veh IGFBP7 (11715501_s_at) / RFU REEP3 (11722064_at) / Fold change /veh REEP3 (11722064_at) / RFU IGLL1 (11728026_x_at) / Fold change /veh IGLL1 (11728026_x_at): dose or concentration left out as unconfirmed
Details: ProbeSet 11718701_a_at; LIST B

Nc1ccc(-c2cccs2)cc1NC(=O)c1ccc2c(c1)cc(C1CC1)n2CCN1CCOCC1 [ACY-1035]
RFU, ARFIP1: 56.28 RFU
